# Measurements published in patent US8580268B2, “CpG oligonucleotide analogs containing hydrophobic T analogs with enhanced immunostimulatory activity” (Coley Pharmaceutical GmbH, priority 2006, dated 2013).
# Entries after “also recorded” stand apart in the source; their conditions may differ. Strand notation (5' to 3'): a small letter for the sugar, then the base; units joined by * are phosphorothioate-linked, units joined directly phosphodiester-linked; [ ] holds rarer units or linkages, { } end groups; capitals alone tell only the bases. [5IU] = 5-iodo-2'-deoxyuridine; [HEG] = Spacer 18, hexaethylene glycol phosphate; [TEG] = Spacer 9, triethylene glycol phosphate; [2doub] = Doubler2 branching unit (Chemgenes); [6NB] = 6-nitro-benzimidazol nucleoside; [5BrU] = 5-bromo-2'-deoxyuridine (BU); [5mC] = 5-methylcytosine; d = 2'-deoxy (DNA); m = 2'-O-methyl
# Molecular target: T1, human TLR9 (Homo sapiens, UniProt Q9NR96)
# T1 construct: expressed in transfected cells
# T1 sequence (Q9NR96 26-1032): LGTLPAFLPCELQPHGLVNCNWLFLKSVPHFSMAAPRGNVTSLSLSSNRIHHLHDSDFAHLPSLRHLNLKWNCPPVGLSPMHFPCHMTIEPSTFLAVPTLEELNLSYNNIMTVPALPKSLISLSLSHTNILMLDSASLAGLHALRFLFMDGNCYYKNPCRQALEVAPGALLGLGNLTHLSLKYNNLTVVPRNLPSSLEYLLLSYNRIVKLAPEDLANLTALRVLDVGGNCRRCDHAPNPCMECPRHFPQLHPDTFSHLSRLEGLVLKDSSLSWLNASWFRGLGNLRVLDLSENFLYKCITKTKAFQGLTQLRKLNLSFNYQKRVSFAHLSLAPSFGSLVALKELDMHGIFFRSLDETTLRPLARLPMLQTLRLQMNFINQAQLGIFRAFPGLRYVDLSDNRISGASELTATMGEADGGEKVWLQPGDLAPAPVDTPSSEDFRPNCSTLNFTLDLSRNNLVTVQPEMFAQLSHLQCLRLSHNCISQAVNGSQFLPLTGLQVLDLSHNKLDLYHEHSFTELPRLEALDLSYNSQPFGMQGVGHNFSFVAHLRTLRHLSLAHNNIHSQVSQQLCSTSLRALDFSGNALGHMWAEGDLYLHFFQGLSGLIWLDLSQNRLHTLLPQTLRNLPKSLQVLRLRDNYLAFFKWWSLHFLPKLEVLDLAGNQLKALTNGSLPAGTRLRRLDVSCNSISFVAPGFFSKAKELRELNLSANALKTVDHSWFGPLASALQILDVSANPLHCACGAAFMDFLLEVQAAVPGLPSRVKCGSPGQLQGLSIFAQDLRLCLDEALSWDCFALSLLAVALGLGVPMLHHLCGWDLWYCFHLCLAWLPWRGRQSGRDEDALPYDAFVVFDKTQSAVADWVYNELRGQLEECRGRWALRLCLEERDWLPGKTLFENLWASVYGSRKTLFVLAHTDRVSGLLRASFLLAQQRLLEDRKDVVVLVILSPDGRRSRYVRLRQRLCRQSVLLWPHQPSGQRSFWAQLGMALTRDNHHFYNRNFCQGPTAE
# Assay: TLR9 luciferase assay (NF-κB reporter) in hTLR9-LUC-293 cells
# Type: cell-based
# Settings: 16 h, stated in words relative to the comparator ODN
# Description: HEK293 cells were transfected by electroporation with vectors expressing the respective human TLR and a 6xNF-κB-luciferase reporter plasmid. Stable transfectants (3×10^4 cells/well) were incubated indicated amounts of ODN for 16 h at 37° C. in a humidified incubator. Each data point was done in triplicate. Cells were lysed and assayed for luciferase gene activity (using the BriteLite kit from Perkin-Elmer, Zaventem, Belgium). Stimulation indices were calculated in reference to reporter gene activity of medium without addition of ODN.
row,Substance,"TLR9 stimulation (NF-κB luciferase activity, relative stimulation index)"
1,"(JU*C*G*T*T*C*G*L*)2doub-3mG (DNA NCGTTCGNNN; JU, 3'3'-branched doubler, chemistry not fully specified) [SEQ ID NO:97]",as active or more active than the unmodified SEQ ID NO:1
2,"(JU*C*G*T*T*C*G*L*)2doub-teg (DNA d[5IU]*dC*dG*dT*dT*dC*dG*[HEG]*[2doub][TEG]; some compounds branched: two arms joined via doubler and TEG) [SEQ ID NO:102, 3′3′-branched]",as active or more active than the unmodified SEQ ID NO:1; also recorded: more active than SEQ ID NO:96 AND 97
3,"(T*G*JU*C-G*T*T*L*)2doub-3mG (DNA TGNCGTTNNN; JU, 3'3'-branched doubler, chemistry not fully specified) [SEQ ID NO:96]",as active or more active than the unmodified SEQ ID NO:1
4,"(T*G*JU*C-G*T*T*L*)2doub-teg (DNA TGNCGTTNNN; JU modification, 3'3'-branched doubler with TEG, chemistry not fully specified) [SEQ ID NO:101]",as active or more active than the unmodified SEQ ID NO:1; also recorded: more active than SEQ ID NO:96 AND 97
5,G*JU*C-G*JU*T-hex [SEQ ID NO:126],greatly enhanced the activity
6,JU*C-G*JU*C*G*T*T*T*T*A*C*G*G*C*G*C*C*G*T*G*C*C*G (DNA d[5IU]*dCdG*d[5IU]*dC*dG*dT*dT*dT*dT*dA*dC*dG*dG*dC*dG*dC*dC*dG*dT*dG*dC*dC*dG) [SEQ ID NO:44],increased stimulation of TLR9 above unmodified A and C class
7,T*C*G*JU*C-G*JU*T*T*T*A*C*G*G*C*G*C*C*G*T*G*C*C*G (DNA dT*dC*dG*d[5IU]*dCdG*d[5IU]*dT*dT*dT*dA*dC*dG*dG*dC*dG*dC*dC*dG*dT*dG*dC*dC*dG) [SEQ ID NO:45],increased stimulation of TLR9 above unmodified A and C class
8,"T*C*T*T*T*T*T*T*G*U*C-G*T*T*T*T*T*T*T*T*T*T (DNA dT*dC*dT*dT*dT*dT*dT*dT*dG*dU*dCdG*dT*dT*dT*dT*dT*dT*dT*dT*dT*dT) [SEQ ID NO:51, U-modified T class]",reduced stimulation of TLR9
9,"T*C-G-A-C-G-JU-C-G-JU-G-G*G*G*G (DNA dT*dCdGdAdCdGd[5IU]dCdGd[5IU]dGdG*dG*dG*dG) [SEQ ID NO:36, JU-modified A class]",increased stimulation of TLR9 above unmodified A and C class
10,"T*C-G-A-C-G-JU-C-G-T-G-G*G*G*G (DNA dT*dCdGdAdCdGd[5IU]dCdGdTdGdG*dG*dG*dG) [SEQ ID NO:35, JU-modified A class]",increased stimulation of TLR9 above unmodified A and C class
11,"T*G*6NB*C-G*T*T*T*T*T*T*T*T*T*T*T*T*T*T*T (DNA TGNCGTTTTTTTTTTTTTTT; DNA at 1, 2, 4, 5, 6, 7, 8, 9, 10, 11, 12, 13, 14, 15, 16, 17, 18, 19, 20, [6NB] at 3, linkages s3 o1 s15 (s phosphorothioate, o phosphodiester), other sugars not given here; further chemistry not fully specified) [SEQ ID NO:178, B-class with 6-nitro-benzimidazol (6NB)]",comparable with the unmodified parent sequence
12,T*G*BU*C-G*T*T*T*T*T*T*T*T*T*T*T*T*T*T*T (DNA dT*dG*d[5BrU]*dCdG*dT*dT*dT*dT*dT*dT*dT*dT*dT*dT*dT*dT*dT*dT*dT) [SEQ ID NO:10],greater stimulation of TLR9 activity over control
13,"T*G*BVU*C-G*T*T*T*T*T*T*T*T*T*T*T*T*T*T*T (DNA TGNCGTTTTTTTTTTTTTTT; listed as DNA, chemistry not fully specified) [SEQ ID NO:153, B-class with 5-(2-bromo-vinyl)-uridine (BVU)]",more active in the assay than the parent sequence
14,"T*G*CU*C-G*T*T*T*T*T*T*T*T*T*T*T*T*T*T*T (DNA TGNCGTTTTTTTTTTTTTTT; CU modification, chemistry not fully specified) [SEQ ID NO:41]",greater stimulation of TLR9 activity over control
15,"T*G*EU*C-G*EU*T*T*T*T*T*T*T*T*T*T*T*T*T*T (DNA TGNCGNTTTTTTTTTTTTTT; EU modifications, chemistry not fully specified) [SEQ ID NO:30]",significant increase in TLR9 activation
16,"T*G*EU*C-G*T*T*T*T*T*T*T*T*T*T*T*T*T*T*T (DNA TGNCGTTTTTTTTTTTTTTT; EU modification, chemistry not fully specified) [SEQ ID NO:42]",greater stimulation of TLR9 activity over control; also recorded: significant increase in TLR9 activation
17,"T*G*JU*C-E*T*T*T*T*T*T*T*T*T*T*T*T*T*T*T (DNA TGNCNTTTTTTTTTTTTTTT; JU, 7-deaza-dG, chemistry not fully specified) [SEQ ID NO:138, B-class with 7-deaza-dG (E)]",more active in the assay than the parent ODN
18,"T*G*JU*C-I*T*T*T*T*T*T*T*T*T*T*T*T*T*T*T (DNA TGUCNTTTTTTTTTTTTTTT; DNA at 3, [5IU] at 3, linkages s3 o1 s15 (s phosphorothioate, o phosphodiester), other sugars and the base at N not given here; position 5 is inosine) [SEQ ID NO:139, B-class with inosine (I)]",more active in the assay than the parent ODN
19,"T*G*JU*C-mG*T*T*T*T*T*T*T*T*T*T*T*T*T*T*T (DNA dT*dG*d[5IU]*dCmG*dT*dT*dT*dT*dT*dT*dT*dT*dT*dT*dT*dT*dT*dT*dT) [SEQ ID NO:112, 2′-O-methyl-modified B-class]",slightly more active
20,"T*G*JU*Z-G*T*T*T*T*T*T*T*T*T*T*T*T*T*T*T (DNA dT*dG*d[5IU]*d[5mC]dG*dT*dT*dT*dT*dT*dT*dT*dT*dT*dT*dT*dT*dT*dT*dT) [SEQ ID NO:140, B-class with 5-methyl-dC (Z)]",more active in the assay than the parent ODN
21,"T*G*PU*C-G*T*T*T*T*T*T*T*T*T*T*T*T*T*T*T (DNA TGNCGTTTTTTTTTTTTTTT; 5-propynyl-dU, chemistry not fully specified) [SEQ ID NO:116, B-class with 5-proynyl-dU (PU)]",activity comparable to that of the parent sequence; also recorded: slightly improved over the parent sequence
22,"T*G*T*C-G*BVU*T*T*T*T*T*T*T*T*T*T*T*T*T*T (DNA TGTCGNTTTTTTTTTTTTTT; listed as DNA, chemistry not fully specified) [SEQ ID NO:154, B-class with 5-(2-bromo-vinyl)-uridine (BVU)]",more active in the assay than the parent sequence
23,"T*G*T*C-G*PU*T*T*T*T*T*T*T*T*T*T*T*T*T*T (DNA TGTCGNTTTTTTTTTTTTTT; 5-propynyl-dU, chemistry not fully specified) [SEQ ID NO:117, B-class with 5-proynyl-dU (PU)]",activity comparable to that of the parent sequence
24,T*G*U*C-G*T*T*T*T*T*T*T*T*T*T*T*T*T*T*T (DNA dT*dG*dU*dCdG*dT*dT*dT*dT*dT*dT*dT*dT*dT*dT*dT*dT*dT*dT*dT) [SEQ ID NO:16],dramatically decreased activity
25,"T*mG*JU*C-mG*T*T*T*T*T*T*T*T*T*T*T*T*T*T*T (DNA dT*mG*d[5IU]*dCmG*dT*dT*dT*dT*dT*dT*dT*dT*dT*dT*dT*dT*dT*dT*dT) [SEQ ID NO:113, 2′-O-methyl-modified B-class]",slightly more active
